Results: patent US20250296953A1, “3,4-THIAZOLO-STEROIDS AND METHODS OF MAKING AND USING THE SAME” (Arkansas State University - Jonesboro, priority 2018, published 2025)
Read-outs that look alike come from different tables or passages of the source.

Assays:
glioblastoma (SF-295) = experiment: NCI 60 five dose screen
SF-539 = experiment: NCI 60 one dose screen; format: cell-based, human; settings: one dose; CNS Cancer; SF-539
[1] = test system: 60 different human tumor cell lines; experiment: NCI Development Therapeutics Program 60 cell line screen, one dose; format: cell-based
[2] = test system: 60 different human tumor cell lines; experiment: cells
[3] = Non-small Cell Lung Cancer, A549/ATCC
[4] = Non-small Cell Lung Cancer, EKVX
[5] = Non-small Cell Lung Cancer, HOP-62
[6] = Non-small Cell Lung Cancer, HOP-92
[7] = Non-small Cell Lung Cancer, NCI-H23
[8] = Non-small Cell Lung Cancer, NCI-H226
[9] = Non-small Cell Lung Cancer, NCI-H322M
[10] = Non-small Cell Lung Cancer, NCI-H460

C[C@]12CCc3sc(Nc4ccc(OC(F)(F)F)cc4)nc3C1=CC[C@@H]1[C@@H]2CC[C@]2(C)C(=O)CC[C@@H]12 [IIa.19, (1S,2R,13R,14S,18S)-2,18-dimethyl-7-[4-(trifluoromethoxy)anilino]-6-thia-8-azapentacyclo[11.7.0.02,10.05,9.014,18]icosa-5(9),7,10-trien-17-one]
GI50 (glioblastoma (SF-295); Homo sapiens, SF-295): 0.7 µM
CC50 (glioblastoma (SF-295); Homo sapiens, SF-295, read-out: LC50): 7.16 µM
TGI (glioblastoma (SF-295); SF-295 (CNS Cancer), five dose): 2.44E−6
Growth Percent (SF-539): −5.40%
Growth Percent ([1]; Breast Cancer, BT-549): 53.50%
Growth Percent ([1]; Breast Cancer, HS 578T): 38.46%
Growth Percent ([1]; Breast Cancer, MCF7): 17.08%
Growth Percent ([1]; Breast Cancer, MDA-MB-231/ATCC): 73.45%
Growth Percent ([1]; Breast Cancer, MDA-MB-468): 69.12%
Growth Percent ([1]; Breast Cancer, T-47D): 41.82%
Growth Percent ([1]; CNS Cancer, SF-268): 68.55%
Growth Percent ([1]; CNS Cancer, SNB-19): 56.49%
Growth Percent ([1]; CNS Cancer, SNB-75): 68.60%
Growth Percent ([1]; CNS Cancer, U251): 34.08%
Growth Percent ([1]; Colon Cancer, COLO 205): 67.03%
Growth Percent ([1]; Colon Cancer, HCC-2998): 96.47%
Growth Percent ([1]; Colon Cancer, HCT-116): 7.77%
Growth Percent ([1]; Colon Cancer, HT29): 12.95%
Growth Percent ([1]; Colon Cancer, KM12): 53.51%
Growth Percent ([1]; Colon Cancer, SW-620): 43.34%
Growth Percent ([1]; Leukemia, CCRF-CEM): 5.05%
Growth Percent ([1]; Leukemia, HL-60(TB)): 43.98%
Growth Percent ([1]; Leukemia, K-562): 8.20%
Growth Percent ([1]; Leukemia, MOLT-4): 4.15%
Growth Percent ([1]; Leukemia, RPMI-8226): 2.88%
Growth Percent ([1]; Leukemia, SR): 16.86%
Growth Percent ([1]; Melanoma, LOX IMVI): 34.82%
Growth Percent ([1]; Melanoma, M14): 83.90%
Growth Percent ([1]; Melanoma, MALME-3M): 76.83%
Growth Percent ([1]; Melanoma, MDA-MB-435): 77.59%
Growth Percent ([1]; Melanoma, SK-MEL-2): 61.81%
Growth Percent ([1]; Melanoma, SK-MEL-5): 95.89%
Growth Percent ([1]; Melanoma, SK-MEL-28): 65.29%
Growth Percent ([1]; Melanoma, UACC-62): 63.42%
Growth Percent ([1]; Melanoma, UACC-257): 84.04%
Growth Percent [1, 3]: 67.03%
Growth Percent [1, 4]: 78.41%
Growth Percent [1, 5]: 80.02%
Growth Percent [1, 6]: 74.98%
Growth Percent [1, 7]: 75.47%
Growth Percent [1, 8]: 74.91%
Growth Percent [1, 9]: 77.29%
Growth Percent [1, 10]: 53.27%
Growth Percent ([1]; Ovarian Cancer, IGROV1): 93.62%
Growth Percent ([1]; Ovarian Cancer, NCI/ADR-RES): 81.59%
Growth Percent ([1]; Ovarian Cancer, OVCAR-3): 37.42%
Growth Percent ([1]; Ovarian Cancer, OVCAR-4): 63.99%
Growth Percent ([1]; Ovarian Cancer, OVCAR-5): 91.93%
Growth Percent ([1]; Ovarian Cancer, OVCAR-8): 66.51%
Growth Percent ([1]; Ovarian Cancer, SK-OV-3): 69.90%
Growth Percent ([1]; Prostate Cancer, DU-145): 66.11%
Growth Percent ([1]; Prostate Cancer, PC-3): 38.59%
Growth Percent ([1]; Renal Cancer, 786-0): 30.50%
Growth Percent ([1]; Renal Cancer, A498): 75.00%
Growth Percent ([1]; Renal Cancer, ACHN): 71.59%
Growth Percent ([1]; Renal Cancer, CAKI-1): 60.44%
Growth Percent ([1]; Renal Cancer, RXF 393): −32.25%
Growth Percent ([1]; Renal Cancer, SN12C): 71.17%
Growth Percent ([1]; Renal Cancer, TK-10): 98.20%
Growth Percent ([1]; Renal Cancer, UO-31): 54.33%
GI50 ([2]; A549): 3.35 µM
CC50 ([2]; A549, read-out: LC50): 73.5 µM
GI50 ([2]; CCRF-CEM): 1.42 µM
CC50 ([2]; CCRF-CEM, read-out: LC50): > 100 µM
GI50 ([2]; COLO 205): 2.61 µM
CC50 ([2]; COLO 205, read-out: LC50): 58.7 µM
GI50 ([2]; EKVX): 2.63 µM
CC50 ([2]; EKVX, read-out: LC50): 95.7 µM
GI50 ([2]; HCC 2998): 5.32 µM
CC50 ([2]; HCC 2998, read-out: LC50): 51.2 µM
GI50 ([2]; HCT-15): 1.69 µM
CC50 ([2]; HCT-15, read-out: LC50): 9.97 µM
GI50 ([2]; HCT-116): 1.28 µM
GI50 ([2]; HL-60): 1.93 µM
CC50 ([2]; HL-60, read-out: LC50): > 100 µM
GI50 ([2]; HOP-62): 1.92 µM
CC50 ([2]; HOP-62, read-out: LC50): 9.14 µM
GI50 ([2]; HOP-92): 1.43 µM
CC50 ([2]; HOP-92, read-out: LC50): 8.26 µM
GI50 ([2]; HT-29): 2.39 µM
CC50 ([2]; HT-29, read-out: LC50): > 100 µM
GI50 ([2]; K562): 1.87 µM
CC50 ([2]; K562, read-out: LC50): > 100 µM
GI50 ([2]; KM12): 3.56 µM
CC50 ([2]; KM12, read-out: LC50): > 100 µM
GI50 ([2]; LOX IMVI): 1.74 µM
CC50 ([2]; LOX IMVI, read-out: LC50): 5.82 µM
GI50 ([2]; MOLT-4): 1.53 µM
CC50 ([2]; MOLT-4, read-out: LC50): > 100 µM
GI50 ([2]; Malme-3M): 3.45 µM
CC50 ([2]; Malme-3M, read-out: LC50): 84.5 µM
GI50 ([2]; NCI-H23): 3.73 µM
CC50 ([2]; NCI-H23, read-out: LC50): 94.6 µM
GI50 ([2]; NCI-H226): 6.37 µM
CC50 ([2]; NCI-H226, read-out: LC50): > 100 µM
GI50 ([2]; NCI-H322M): 6.05 µM
CC50 ([2]; NCI-H322M, read-out: LC50): > 100 µM
GI50 ([2]; NCI-H460): 3.25 µM
CC50 ([2]; NCI-H460, read-out: LC50): 41.9 µM
GI50 ([2]; NCI-H522): 2.14 µM
CC50 ([2]; NCI-H522, read-out: LC50): 9.7 µM
GI50 ([2]; SF-268): 3.01 µM
CC50 ([2]; SF-268, read-out: LC50): 57.3 µM
GI50 ([2]; SNB-19): 2.12 µM
CC50 ([2]; SNB-19, read-out: LC50): 46 µM
GI50 ([2]; SNB-75): 1.88 µM
CC50 ([2]; SNB-75, read-out: LC50): 29.6 µM
GI50 ([2]; SW-620): 2.21 µM
CC50 ([2]; SW-620, read-out: LC50): 18.5 µM
GI50 ([2]; U-251): 1.09 µM
CC50 ([2]; U-251, read-out: LC50): 9.78 µM

C[C@]12CCc3nc(Nc4ccc(O)cc4)sc3C1=CC[C@@H]1[C@@H]2CC[C@]2(C)C(=O)CC[C@@H]12 [IIa.35]
GI50 (glioblastoma (SF-295); SF-295 (CNS Cancer), five dose): 5.26 µM
TGI (glioblastoma (SF-295); SF-295 (CNS Cancer), five dose): 3.59E−5
CC50 (glioblastoma (SF-295); read-out: LC50, SF-295 (CNS Cancer), five dose): > 100 µM
Growth Percent (SF-539): −3.84%
Growth Percent ([1]; Breast Cancer, BT-549): 45.59%
Growth Percent ([1]; Breast Cancer, HS 578T): 53.60%
Growth Percent ([1]; Breast Cancer, MCF7): 3.11%
Growth Percent ([1]; Breast Cancer, MDA-MB-231/ATCC): 35.27%
Growth Percent ([1]; Breast Cancer, MDA-MB-468): −36.91%
Growth Percent ([1]; Breast Cancer, T-47D): 10.57%
Growth Percent ([1]; CNS Cancer, SF-268): 58.35%
Growth Percent ([1]; CNS Cancer, SNB-19): 64.60%
Growth Percent ([1]; CNS Cancer, SNB-75): 41.74%
Growth Percent ([1]; CNS Cancer, U251): 19.48%
Growth Percent ([1]; Colon Cancer, COLO 205): 38.45%
Growth Percent ([1]; Colon Cancer, HCC-2998): 97.70%
Growth Percent ([1]; Colon Cancer, HCT-116): −72.37%
Growth Percent ([1]; Colon Cancer, HT29): 10.26%
Growth Percent ([1]; Colon Cancer, KM12): 46.68%
Growth Percent ([1]; Colon Cancer, SW-620): −32.15%
Growth Percent ([1]; Leukemia, CCRF-CEM): 8.33%
Growth Percent ([1]; Leukemia, HL-60(TB)): 8.98%
Growth Percent ([1]; Leukemia, K-562): 10.77%
Growth Percent ([1]; Leukemia, MOLT-4): 10.99%
Growth Percent ([1]; Leukemia, RPMI-8226): −24.54%
Growth Percent ([1]; Leukemia, SR): 9.60%
Growth Percent ([1]; Melanoma, LOX IMVI): −8.01%
Growth Percent ([1]; Melanoma, M14): 58.13%
Growth Percent ([1]; Melanoma, MALME-3M): 29.71%
Growth Percent ([1]; Melanoma, MDA-MB-435): 35.34%
Growth Percent ([1]; Melanoma, SK-MEL-2): 72.46%
Growth Percent ([1]; Melanoma, SK-MEL-5): 62.03%
Growth Percent ([1]; Melanoma, SK-MEL-28): 77.86%
Growth Percent ([1]; Melanoma, UACC-62): 55.82%
Growth Percent ([1]; Melanoma, UACC-257): 73.38%
Growth Percent [1, 3]: 79.28%
Growth Percent [1, 4]: 98.04%
Growth Percent [1, 5]: 92.69%
Growth Percent [1, 6]: 125.71%
Growth Percent [1, 7]: 70.16%
Growth Percent [1, 8]: 102.70%
Growth Percent [1, 9]: 93.36%
Growth Percent [1, 10]: 65.57%
Growth Percent ([1]; Ovarian Cancer, IGROV1): 13.07%
Growth Percent ([1]; Ovarian Cancer, NCI/ADR-RES): 68.59%
Growth Percent ([1]; Ovarian Cancer, OVCAR-3): −31.67%
Growth Percent ([1]; Ovarian Cancer, OVCAR-4): 57.12%
Growth Percent ([1]; Ovarian Cancer, OVCAR-5): 116.69%
Growth Percent ([1]; Ovarian Cancer, OVCAR-8): 35.92%
Growth Percent ([1]; Ovarian Cancer, SK-OV-3): 107.77%
Growth Percent ([1]; Prostate Cancer, DU-145): 10.45%
Growth Percent ([1]; Prostate Cancer, PC-3): 39.10%
Growth Percent ([1]; Renal Cancer, 786-0): −3.03%
Growth Percent ([1]; Renal Cancer, A498): 100.87%
Growth Percent ([1]; Renal Cancer, ACHN): −17.29%
Growth Percent ([1]; Renal Cancer, CAKI-1): 47.13%
Growth Percent ([1]; Renal Cancer, RXF 393): −16.18%
Growth Percent ([1]; Renal Cancer, SN12C): 30.38%
Growth Percent ([1]; Renal Cancer, TK-10): 22.82%
Growth Percent ([1]; Renal Cancer, UO-31): −48.83%
